From patent US8362031B2, “Lonidamine analogues and treatment of polycystic kidney disease” (University of Kansas, priority 2004, dated 2013)
“And” between values parts separate entries of the source, which are not always exact repeats. Equal entries are not always repeated. “Also recorded” adds a separate entry of the source. Where two headings read alike, the source gives them in different places.

Assays:
Male Long Evans rats [1] = test: In vivo antispermatogenic testing in Long Evans rats; details: for Mortality (25 mg/kg) / Response 25 mg/kg: 25 mg/kg single i.p. injection; for Response 200 mg/kg / Mortality (200 mg/kg): 200 mg/kg single i.p. injection; for Response 200 mg/kg / Response 25 mg/kg: animals responding out of animals surviving, five days following injection
rats = test: Toxicology: organs sectioned and examined after dosing; format: in vivo; details: 25 mg/kg, two animals examined, findings per animal
Description: In at least two of the animals in each group, the pancreas, right kidney and part of the liver, heart, spleen, and lung were removed and evaluated for toxic effects.
The toxicology of animals receiving some of the compounds of the present invention IP and/or oral was examined. At the time of sacrifice samples of liver, pancreas, heart, lung, spleen and kidney were removed, visually inspected, and immersion fixed in Bouin's solution for a minimum of 48 hours. All organs were then sectioned and examined for evidence of necrosis, inflammation, hemorrhage, and possible tumors. The major veins in each tissue were also examined for distention, especially in the liver and pancreas, and any other abnormalities are compared to known histopathological states. In addition to the above, the heart was examined for evidence of fibrosis in the muscular walls, and to compare the thickness of the ventricular walls. The pancreas was examined mainly for calcium deposits, while the lung was checked for signs of any exudates or hemorrhage, especially in the alveolar spaces. Finally, the kidney was examined mainly for microscopic hemorrhages, tubular necrosis or alterations in the glomeruli in the cortex.
In this example, the effects of RC-MC-30 were compared with those of lonidamine in sexually mature rats. As discussed above, each of the rats (8 total) received a single injection and were sacrificed five days after injection and examined.

[2] = system: Salmonella Typhimurium TA 100; test: Ames test for mutagenicity (plate assay, colony count); details: 48 hours at 37° C.; for Ames test (+)S9 0.1 mg/pl. / Ames test (+)S9 1 mg/pl. / Ames test (+)S9 10 mg/pl.: (+)S9 mix; for Ames test (−)S9 0.1 mg/pl. / Ames test (−)S9 1 mg/pl. / Ames test (−)S9 10 mg/pl.: (−)S9 mix
[3] = system: M-1 Clone 20; human primary cyst epithelial cells (ADPKD cells); test: MTT cell proliferation assay with cAMP (FIGS. 9A-9B); format: cell-based; details: 48 hours
Description: Various compounds were tested for their effects on cell proliferation. In the study, the cell types were M-1 Clone 20, which is an immortalized cell line that mimics PKD, and human primary cyst epithelial cells, or ADPKD cells. The compounds were tested at 1 μM to 100 μM concentrations.
M-1 clone 20 (“M1 Clone 20”) cells are a model of PKD-like cells, which were created by stably transfecting parental “normal” M-1 immortalized renal cortical collecting duct cells with the C-terminal cytosolic domain (or C-tail) of mouse polycystin-1 (the protein product of the Pkd1 gene. The overexpressed C-tail acts in a dominant-negative fashion, conferring the PKD phenotype to these cells. Their characterization is described in: Sutters, M., Yamaguchi, T., Maser, R. L., Magenheimer, B. S., St. John, P. L., Abrahamson, D. R., Grantham, J. J. and Calvet, J. P. (2001) Polycystin-1 transforms the cAMP growth-responsive phenotype of M-1 cells. Kidney Int. 60, 484-494.
FIGS. 9A-9B include graphs that show cells grown in the vehicle (i.e. DMSO at two different volumes of 1 uL and 5 uL respectively), cAMP only, and then under the treatment drugs, all of which also had cAMP in them. The comparison drug used was 10 uM of gamendazole. […] Absorbance is a measure of cell number.
The comparison drug used was 10 uM Gamendazole. The MTT cell proliferation assay was carried out to assess cell number—cell proliferation is essentially cell number. […] Thus, absorbance is a measure of cell number, or cell proliferation. The reference bar is the third bar from the left (cAMP)—the degree of inhibition should be compared to that bar.

Male Long Evans rats [4] = details: rat, in vivo, 5 days
fruitfly = test: Reproduction of fruitfly; format: in vivo, Drosophila (fruitfly); details: provided to a fruitfly
Excerpt: Several known Hsp90 inhibitors are listed above. With regard to HSP90, RC-MC-110 likely a novel inhibitor of the N-terminal ATP binding site or a novel site on Hsp90. It should be noted that mutants of Hsp90 in Drosophila (fruitfly) produce sterile males and females. […] Genetics. 1999 March; 151(3):1065-79.

Row | Compound | Mortality (25 mg/kg) (Male Long Evans rats [1]) | Response 200 mg/kg (Male Long Evans rats [1]) | Toxicology: liver, lung, pancreas, spleen, heart and kidney (histology) (rats) | Ames test (+)S9 0.1 mg/pl. [2] | Ames test (+)S9 1 mg/pl. [2] | Ames test (+)S9 10 mg/pl. [2] | Ames test (−)S9 0.1 mg/pl. [2] | Ames test (−)S9 1 mg/pl. [2] | Ames test (−)S9 10 mg/pl. [2] | Inhibition of cell proliferation (MTT absorbance) ([3]; 10 uM) | Inhibition of cell proliferation (MTT absorbance) ([3]; 25 uM) | Response 25 mg/kg (Male Long Evans rats [1]) | Mortality (200 mg/kg) (Male Long Evans rats [1]) | Mortality (25 mg/kg) (Male Long Evans rats [4]) | Mortality (200 mg/kg) (Male Long Evans rats [4]) | Reproduction of fruitfly (fruitfly)
1 | O=C(O)/C=C/c1nn(Cc2ccc(Cl)cc2Cl)c2cc(Cl)ccc12 [JWS-1-190, 3-[1-(2,4-dichlorobenzyl)-6-chloro-1H-indazol-3-yl]-acrylic acid] | 0/5 | 0/0 and 2/5 | The lung did have multiple, scattered hemorrhagic patches in the alveolar clusters; also recorded: liver, lung, pancreas, spleen, heart and kidney all appeared within normal limits | Pass | Pass | Pass | Pass | Pass | Pass | very effective | quite effective in inhibiting cell proliferation | – | – | – | – | –
2 | Cc1ccc2c(/C=C/C(=O)O)nn(Cc3ccc(Cl)cc3Cl)c2c1 [TH-2-192, 3-[1-(2,4-dichlorobenzyl)-6-methyl-1H-indazol-3-yl]acrylic acid] | 0/5 | 0/4 | – | Pass | Pass | Pass | Pass | Pass | Pass | – | more effective in inhibition of cell proliferation at 25 uM compared to 10 uM | 0/5 | 4/5 | – | – | –
3 | Cc1ccc2c(C(=O)O)nn(Cc3ccc(Cl)cc3Cl)c2c1 [TH-2-178, 1-(2,4-dichlorobenzyl)-6-methyl-1H-indazole-3-carboxylic acid] | 0/5 | 4/5 | – | Pass | Pass | Pass | Pass | Pass | Pass | – | more effective in inhibition of cell proliferation at 25 uM compared to 10 uM | 0/5 | 0/5 | – | – | –
4 | O=C(O)c1nn(Cc2ccc(Cl)cc2Cl)c2ccccc12 [Lonidamine, 1-(2,4,-dichlorobenzyl)-1H-indazole-3-carboxylic acid] | – | 5/5 | liver, lung, pancreas, spleen, heart and kidney all appeared normal | – | – | – | – | – | – | – | – | 2/5 | – | 0/5 | 0/5 | inhibited reproduction
